Data on three compounds can be found in patent publication US20090093482A1, “THERAPEUTIC COMPOSITIONS AND METHODS” (Gilead Sciences, Inc., priority 2007, published 2009).

“And” between values parts separate entries of the source, which are not always exact repeats. Equal values may be shown once.

Data set [1] is described as follows: Pharmacokinetic interaction between lopinavir/r and the Compound, steady-state PK in healthy volunteers. The format is in vivo, human. Particulars: for Exposures when coadministered with the Compound: LPV/r 400/100 mg BID + the Compound 125 mg QD; for AUCtau % GMR (90% CI) / Cmax % GMR (90% CI) / Ctau % GMR (90% CI): 14-day periods.
Data set [2] is described as follows: Compartmental modeling in WinNonlin of Compound doses using the observed lopinavir interaction data. To be noted: modeled. The arrangement: species or system human. The source says:
Consideration was given to achieving equivalent Compound exposures in patients receiving and not receiving lopinavir using pharmacokinetic (bio-) equivalence comparisons (Pharsight Corporation, Mountain View, Calif., USA). Consideration was also given to minimizing the number of individuals with extreme outliers in (low or high) exposures.

The mark [3] stands for this setting: LPV/r 400/100 mg BID + the Compound 125 mg QD vs LPV/r 400/100 mg BID alone, n = 13.
The mark [4] stands for this setting: the Compound 125 mg QD + LPV/r 400/100 mg BID vs the Compound/r 125/100 mg QD alone, n = 14.

Turning to `Cc1cccc(C)c1OCC(=O)N[C@@H](Cc1ccccc1)[C@@H](O)C[C@H](Cc1ccccc1)NC(=O)[C@H](C(C)C)N1CCCNC1=O` [LPV, (2S)-N-[(2S,4S,5S)-5-{[2-(2,6-dimethyl-phenoxy)acetyl]amino}-4-hydroxy-1,6-diphenyl-hexan-2-yl]-3-methyl-2-(2-oxo-1,3-diazinan-1-yl)butanamide], the “Exposures when coadministered with the Compound” value in data set [1] is “unaltered”. Besides, in data set [1] (setting [3]), the “AUCtau % GMR (90% CI)” value stood at 96.6%, the “Cmax % GMR (90% CI)” value turned out to be 99.2% and the “Ctau % GMR (90% CI)” value is on record as 92.3%. Also, the “Trough concentrations when coadministered with the Compound” value in data set [1] (relative to recommended target troughs) is given as “maintained above recommended target troughs”.

As for `CC(C)c1nc(CN(C)C(=O)NC(C(=O)NC(Cc2ccccc2)CC(O)C(Cc2ccccc2)NC(=O)OCc2cncs2)C(C)C)cs1` (stereo not drawn) [RTV, 1,3-thiazol-5-ylmethyl[3-hydroxy-5-[3-methyl-2-[methyl-[(2-propan-2-yl-1,3-thiazol-4-yl)methyl]carbamoyl]amino-butanoyl]amino-1,6-diphenyl-hexan-2-yl]aminoformate], in data set [1], the “Exposures when coadministered with the Compound” value is given as “unaltered”. Besides, in data set [1] (setting [3]), the “AUCtau % GMR (90% CI)” value came to 103%, the “Cmax % GMR (90% CI)” value is reported as 114% and the “Ctau % GMR (90% CI)” value is reported as 88.3%.

With `COc1cc2c(cc1Cc1cccc(Cl)c1F)c(=O)c(C(=O)O)cn2[C@H](CO)C(C)C` [the Compound, 6-(3-chloro-2-fluorobenzyl)-1-[(2S)-1-hydroxy-3-methylbutan-2-yl]-7-methoxy-4-oxo-1,4-dihydroquinoline-3-carboxylic acid], in data set [1] (setting [4]), the “AUCtau % GMR (90% CI)” value was 175 (150, 204) %; the “Cmax % GMR (90% CI)” value is 152 (129, 179) %; the “Ctau % GMR (90% CI)” value was 238 (181, 313) %. Further, the “Reduction in the dose of the Compound with lopinavir while maintaining an equivalent exposure” value in data set [2] is listed as 40-60%. In data set [2] (reference is the 150 mg ritonavir-boosted dose without lopinavir), the “Dose of the Compound with lopinavir/r giving systemic exposure (AUC) similar to a 150 mg dose without lopinavir” value is 85 mg and 85 ± 10 mg. Moreover, the “Dose of the Compound with lopinavir/r giving systemic exposure (AUC) similar to a 300 mg dose without lopinavir” value in data set [2] (reference is the 300 mg ritonavir-boosted dose without lopinavir) is listed as 150 mg.
